Laboratory results published in publication PMC10178848, “Modulating fast skeletal muscle contraction protects skeletal muscle in animal models of Duchenne muscular dystrophy” (The Journal of Clinical Investigation, 2023).

Columns and labels:
[1] = biological target: T1, bovine cardiac myofibrils (Bos taurus, UniProt Q9BE39); assay: Myofibril ATPase, bovine cardiac; format: biochemical; settings: bovine cardiac ventricle; at pCa50
T1 construct: from tissue; host or cells: bovine cardiac ventricle
T1 sequence (Q9BE39 whole entry): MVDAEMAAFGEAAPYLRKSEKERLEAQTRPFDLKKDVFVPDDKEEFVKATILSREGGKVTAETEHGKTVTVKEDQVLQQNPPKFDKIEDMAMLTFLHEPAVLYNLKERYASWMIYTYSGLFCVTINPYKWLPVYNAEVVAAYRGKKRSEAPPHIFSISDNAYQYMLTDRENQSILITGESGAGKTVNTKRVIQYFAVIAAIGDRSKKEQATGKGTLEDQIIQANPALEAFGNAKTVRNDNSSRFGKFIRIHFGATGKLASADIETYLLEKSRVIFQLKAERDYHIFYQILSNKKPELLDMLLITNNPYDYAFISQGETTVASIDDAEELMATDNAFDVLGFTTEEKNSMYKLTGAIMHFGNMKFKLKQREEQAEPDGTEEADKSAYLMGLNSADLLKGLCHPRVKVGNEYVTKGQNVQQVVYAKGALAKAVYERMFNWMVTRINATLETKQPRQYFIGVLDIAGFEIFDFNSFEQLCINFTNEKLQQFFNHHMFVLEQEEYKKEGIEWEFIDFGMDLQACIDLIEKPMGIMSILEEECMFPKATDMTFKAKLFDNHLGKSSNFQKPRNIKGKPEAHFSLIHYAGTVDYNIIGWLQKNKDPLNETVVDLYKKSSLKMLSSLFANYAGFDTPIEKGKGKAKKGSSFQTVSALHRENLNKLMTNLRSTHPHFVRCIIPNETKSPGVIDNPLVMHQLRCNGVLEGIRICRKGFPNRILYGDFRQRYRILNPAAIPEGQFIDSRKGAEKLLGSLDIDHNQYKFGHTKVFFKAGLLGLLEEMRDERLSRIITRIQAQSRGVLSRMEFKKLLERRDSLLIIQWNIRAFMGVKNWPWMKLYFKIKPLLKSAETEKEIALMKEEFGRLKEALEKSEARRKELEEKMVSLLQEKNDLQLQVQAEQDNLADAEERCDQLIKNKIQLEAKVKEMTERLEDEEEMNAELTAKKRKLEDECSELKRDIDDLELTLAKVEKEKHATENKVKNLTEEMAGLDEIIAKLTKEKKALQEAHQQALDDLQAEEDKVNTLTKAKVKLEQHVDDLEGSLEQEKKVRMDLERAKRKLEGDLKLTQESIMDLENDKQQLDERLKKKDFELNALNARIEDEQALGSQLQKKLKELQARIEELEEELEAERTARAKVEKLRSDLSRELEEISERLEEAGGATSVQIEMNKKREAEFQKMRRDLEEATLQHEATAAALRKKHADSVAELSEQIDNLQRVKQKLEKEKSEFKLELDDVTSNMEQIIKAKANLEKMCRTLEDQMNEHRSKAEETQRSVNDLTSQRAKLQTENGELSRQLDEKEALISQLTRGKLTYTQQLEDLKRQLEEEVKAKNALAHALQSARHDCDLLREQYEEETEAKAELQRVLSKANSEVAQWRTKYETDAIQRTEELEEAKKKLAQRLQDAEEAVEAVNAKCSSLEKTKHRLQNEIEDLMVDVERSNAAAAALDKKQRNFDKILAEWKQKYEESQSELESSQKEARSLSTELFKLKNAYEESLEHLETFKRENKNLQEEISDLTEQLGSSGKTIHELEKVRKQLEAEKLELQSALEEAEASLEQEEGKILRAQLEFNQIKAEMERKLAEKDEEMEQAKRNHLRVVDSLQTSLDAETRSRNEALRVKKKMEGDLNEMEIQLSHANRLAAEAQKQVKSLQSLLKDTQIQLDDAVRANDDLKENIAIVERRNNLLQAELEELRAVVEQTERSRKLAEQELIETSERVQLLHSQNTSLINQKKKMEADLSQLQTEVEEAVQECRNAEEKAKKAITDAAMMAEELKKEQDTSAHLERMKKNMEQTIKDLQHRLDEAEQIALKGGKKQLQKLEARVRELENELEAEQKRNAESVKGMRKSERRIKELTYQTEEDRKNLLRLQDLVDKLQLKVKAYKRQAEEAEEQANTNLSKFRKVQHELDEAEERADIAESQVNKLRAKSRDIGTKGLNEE
T1 sequence (P85100 whole entry partner): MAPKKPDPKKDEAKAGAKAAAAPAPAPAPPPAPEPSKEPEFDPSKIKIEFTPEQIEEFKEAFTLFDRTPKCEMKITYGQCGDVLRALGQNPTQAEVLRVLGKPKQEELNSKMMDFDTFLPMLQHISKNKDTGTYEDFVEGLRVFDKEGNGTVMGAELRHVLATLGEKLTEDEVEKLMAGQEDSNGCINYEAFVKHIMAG
T1 sequence (Q3SZE5 whole entry partner): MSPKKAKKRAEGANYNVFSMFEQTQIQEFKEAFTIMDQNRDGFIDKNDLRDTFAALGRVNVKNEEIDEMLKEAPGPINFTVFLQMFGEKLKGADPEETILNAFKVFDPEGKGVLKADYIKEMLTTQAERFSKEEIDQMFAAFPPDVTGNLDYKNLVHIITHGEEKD
Procedure: (§1) Myofibrils were prepared from various animals and tissues: rabbit psoas muscle and porcine cardiac muscle were purchased from Pel-Freez Biologicals. Human bicep and soleus muscle were purchased from BioIVT, and neonatal rat muscle was obtained in house. All myofibrils were prepared using published methods ([21]).
(§2) A lactate dehydrogenase/pyruvate kinase enzyme-coupled system ([62]) was used to monitor ATP hydrolysis rates in various muscle preparations. Rabbit psoas myofibrils were used for high-throughput screening at pCa 6.25 at 0.25 mg/mL. A multidrop cassette (Thermo Fisher Scientific) dispensed 10 μL of the coupled enzyme system, calcium, and myofibrils to 10 μL ATP, NADH and PEP to initiate the reaction prior to reading on a plate reader (Envision, Perkin Elmer) for 10 minutes per plate at room temperature. Hits were reconfirmed, and secondary assays were used to evaluate selectivity, including bovine cardiac myofibrils (pCa 5.86) and enzyme coupled hits with a hexokinase screen (Sigma-Aldrich).

mouse TA myofibrils = assay: Myofibril ATPase, mouse TA; format: biochemical; settings: mixed IIa, IIx, IIb
Human Bicep myofibrils = assay: Myofibril ATPase, human bicep; format: biochemical
Procedure: as §1, §2

Human Soleus myofibrils = assay: Myofibril ATPase, human soleus; format: biochemical
Procedure: as §1, §2

[2] = tested on: slow skeletal rat soleus fibers; assay: Skinned fiber force, rat soleus; settings: 100% type I, EDG-5506
Procedure: Measurement of isometric force in skinned fibers from rabbit psoas, rat soleus, and rat cardiac trabeculae were performed as described previously ([65]) with an 802D fiber system (Aurora Scientific). Muscle bundles were thawed from –80°C and placed in relaxing solution. Single fibers were transferred to the testing apparatus with steel pins connected to a force transducer and motor (model 403A and 322C, Aurora Scientific), and collodion glue was applied. Temperature was set to 15°C for skeletal fibers and 30°C for rat cardiac trabeculae. The wells of the 802D were filled with different ratios of relaxing and activating pCa solutions as detailed previously ([65]). All control solutions contained 1% final DMSO. Traces were compared between control and compound runs to evaluate isometric force and calcium sensitivity.

mdx mice [3] = assay: Plasma CK activity in mice; format: in vivo, mouse
Procedure: Plasma from mice and dogs were analyzed for CK activity using standard protocols (Pointe Scientific, Thermo Fisher Scientific).

WT or mdx mice = assay: Rotarod endurance; format: in vivo, mouse; settings: single doses up to 10 mg/kg, 4 hours after oral administration
Procedure: (§3) Prior to in vivo assessments, mice were dosed PO after a 2-hour fast with 10 mL/Kg suspensions. Grip strength and rotarod assessments were performed masked, 4 hours after dosing using published protocols ([66], [67]). Grip strength was performed with a Columbus Instruments Rodent Force Meter. Forepaw strength represented the average of 5 trials with 30-second rest periods, normalized by BW. Rotarod endurance was performed with a Columbus Instruments RotaMax. Mice were placed on the device drum at 1 rpm, which accelerated 1 rpm every 3 seconds to 12 rpm and a maximal time of 500 seconds. This was repeated 3 times with a 3-minute rest and total time reported. Voluntary wheel running performance was assessed with a customized system. Timestamped RPMs were measured 24 hours per day by infrared sensors, and a custom software calculated distance. Whole-body EBD was visualized after intravenous administration ([35]). EBD in PBS at 10 mg/mL was sterile filtered, and 50 μL/10 g BW was injected via tail vein. After 24 hours, animals were sacrificed, skin was removed and fixed in 4% formalin for 24 hours, and photographed using a Leica/Lumix camera.

WT and mdx mice = assay: Voluntary wheel running; format: in vivo, mouse; settings: 50 ppm chow
Procedure: as §3

mdx mice [4] = assay: Evans blue dye muscle uptake; format: in vivo, mouse; settings: three-week treatment, nonexercised
Procedure: as §3

[5] = biological target: T2, ABL1(T315I)-phosphorylated (Homo sapiens, UniProt P00519, T315I); assay: KINOMEscan scanEDGE; format: binding; settings: 20 uM
T2 construct: purchased Eurofins DiscoverX (KINOMEscan; SAFETYscan E/IC50 ELECT)

BMPR2 = biological target: T3, BMPR2 (Homo sapiens, UniProt Q13873); assay: KINOMEscan scanEDGE; format: binding; settings: 20 uM
T3 construct: purchased Eurofins DiscoverX (KINOMEscan; SAFETYscan E/IC50 ELECT)

CSF1R = biological target: T4, CSF1R (Homo sapiens, UniProt P07333); assay: KINOMEscan scanEDGE; format: binding; settings: 20 uM
T4 construct: purchased Eurofins DiscoverX (KINOMEscan; SAFETYscan E/IC50 ELECT)
T4 sequence (P07333 20-972): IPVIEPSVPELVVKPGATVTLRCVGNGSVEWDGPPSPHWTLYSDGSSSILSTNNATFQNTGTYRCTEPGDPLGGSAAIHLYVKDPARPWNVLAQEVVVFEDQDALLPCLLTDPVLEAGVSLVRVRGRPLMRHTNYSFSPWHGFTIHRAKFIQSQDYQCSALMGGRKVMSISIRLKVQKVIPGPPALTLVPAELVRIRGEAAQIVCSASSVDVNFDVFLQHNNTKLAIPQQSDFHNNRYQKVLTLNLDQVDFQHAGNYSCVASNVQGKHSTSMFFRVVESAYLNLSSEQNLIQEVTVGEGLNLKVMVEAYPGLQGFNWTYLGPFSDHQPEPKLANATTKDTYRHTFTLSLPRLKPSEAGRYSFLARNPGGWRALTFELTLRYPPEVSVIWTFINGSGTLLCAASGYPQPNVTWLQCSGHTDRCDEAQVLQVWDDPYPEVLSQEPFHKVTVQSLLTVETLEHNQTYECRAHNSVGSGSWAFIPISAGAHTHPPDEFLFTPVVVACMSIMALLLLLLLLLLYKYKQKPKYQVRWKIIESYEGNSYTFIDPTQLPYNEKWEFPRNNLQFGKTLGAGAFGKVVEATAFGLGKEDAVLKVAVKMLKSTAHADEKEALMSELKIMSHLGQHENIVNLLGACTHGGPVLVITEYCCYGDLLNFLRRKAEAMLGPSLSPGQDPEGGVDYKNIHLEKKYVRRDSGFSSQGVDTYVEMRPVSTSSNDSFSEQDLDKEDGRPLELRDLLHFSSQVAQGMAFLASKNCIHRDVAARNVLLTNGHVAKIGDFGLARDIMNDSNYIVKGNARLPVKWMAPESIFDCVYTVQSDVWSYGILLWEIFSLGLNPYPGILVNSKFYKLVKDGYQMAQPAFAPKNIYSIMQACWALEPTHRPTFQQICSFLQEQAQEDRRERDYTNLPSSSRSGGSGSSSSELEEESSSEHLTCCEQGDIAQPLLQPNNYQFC

EGFR = biological target: T5, EGFR (Homo sapiens, UniProt P00533); assay: KINOMEscan scanEDGE; format: binding; settings: 20 uM
T5 construct: purchased Eurofins DiscoverX (KINOMEscan; SAFETYscan E/IC50 ELECT)

FAK = biological target: T6, FAK (Homo sapiens, UniProt Q05397); assay: KINOMEscan scanEDGE; format: binding; settings: 20 uM
T6 construct: purchased Eurofins DiscoverX (KINOMEscan; SAFETYscan E/IC50 ELECT)

IGF1R = biological target: T7, IGF1R (Homo sapiens, UniProt P08069); assay: KINOMEscan scanEDGE; format: binding; settings: 20 uM
T7 construct: purchased Eurofins DiscoverX (KINOMEscan; SAFETYscan E/IC50 ELECT)

MEK2 = biological target: T8, MEK2 (Homo sapiens, UniProt P36507); assay: KINOMEscan scanEDGE; format: binding; settings: 20 uM
T8 construct: purchased Eurofins DiscoverX (KINOMEscan; SAFETYscan E/IC50 ELECT)

PIM2 = biological target: T9, PIM2 (Homo sapiens, UniProt Q9P1W9); assay: KINOMEscan scanEDGE; format: binding; settings: 20 uM
T9 construct: purchased Eurofins DiscoverX (KINOMEscan; SAFETYscan E/IC50 ELECT)

RET = biological target: T10, RET (Homo sapiens, UniProt P07949); assay: KINOMEscan scanEDGE; format: binding; settings: 20 uM
T10 construct: purchased Eurofins DiscoverX (KINOMEscan; SAFETYscan E/IC50 ELECT)

[6] = biological target: T11, RSK2(Kin.Dom.1-N-terminal) (Homo sapiens, UniProt P51812); assay: KINOMEscan scanEDGE; format: binding; settings: 20 uM
T11 construct: RSK2(Kin.Dom.1-N-terminal); purchased Eurofins DiscoverX (KINOMEscan; SAFETYscan E/IC50 ELECT)
T11 sequence (P51812 1-397 limits assumed): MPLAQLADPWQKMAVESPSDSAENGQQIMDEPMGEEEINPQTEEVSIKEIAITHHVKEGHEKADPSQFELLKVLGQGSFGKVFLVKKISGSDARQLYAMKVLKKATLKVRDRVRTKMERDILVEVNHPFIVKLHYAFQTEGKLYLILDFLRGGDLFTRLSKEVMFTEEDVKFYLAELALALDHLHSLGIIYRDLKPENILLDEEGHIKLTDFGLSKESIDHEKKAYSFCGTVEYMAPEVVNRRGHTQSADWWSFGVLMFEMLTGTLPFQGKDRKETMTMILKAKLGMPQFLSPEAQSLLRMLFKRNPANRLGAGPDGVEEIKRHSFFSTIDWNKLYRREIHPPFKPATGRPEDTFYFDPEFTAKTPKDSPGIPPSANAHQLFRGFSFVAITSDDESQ

YANK3 = biological target: T12, YANK3 (Homo sapiens, UniProt Q86UX6); assay: KINOMEscan scanEDGE; format: binding; settings: 20 uM
T12 construct: purchased Eurofins DiscoverX (KINOMEscan; SAFETYscan E/IC50 ELECT)
T12 sequence (Q86UX6 whole entry): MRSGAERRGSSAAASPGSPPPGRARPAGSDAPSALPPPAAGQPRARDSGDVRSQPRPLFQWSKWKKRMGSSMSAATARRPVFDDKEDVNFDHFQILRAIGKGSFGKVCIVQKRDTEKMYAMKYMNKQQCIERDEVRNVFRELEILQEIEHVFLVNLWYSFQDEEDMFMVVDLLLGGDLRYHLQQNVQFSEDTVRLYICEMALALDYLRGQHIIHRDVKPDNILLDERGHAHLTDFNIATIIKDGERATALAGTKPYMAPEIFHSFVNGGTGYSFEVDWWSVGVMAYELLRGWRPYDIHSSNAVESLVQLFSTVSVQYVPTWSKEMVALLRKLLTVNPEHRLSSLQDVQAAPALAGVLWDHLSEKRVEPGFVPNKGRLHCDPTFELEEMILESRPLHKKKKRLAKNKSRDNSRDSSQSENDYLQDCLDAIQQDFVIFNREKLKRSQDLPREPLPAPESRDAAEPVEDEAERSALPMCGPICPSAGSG

ZAP70 = biological target: T13, ZAP70 (Homo sapiens, UniProt P43403); assay: KINOMEscan scanEDGE; format: binding; settings: 20 uM
T13 construct: purchased Eurofins DiscoverX (KINOMEscan; SAFETYscan E/IC50 ELECT)
T13 sequence (P43403 whole entry): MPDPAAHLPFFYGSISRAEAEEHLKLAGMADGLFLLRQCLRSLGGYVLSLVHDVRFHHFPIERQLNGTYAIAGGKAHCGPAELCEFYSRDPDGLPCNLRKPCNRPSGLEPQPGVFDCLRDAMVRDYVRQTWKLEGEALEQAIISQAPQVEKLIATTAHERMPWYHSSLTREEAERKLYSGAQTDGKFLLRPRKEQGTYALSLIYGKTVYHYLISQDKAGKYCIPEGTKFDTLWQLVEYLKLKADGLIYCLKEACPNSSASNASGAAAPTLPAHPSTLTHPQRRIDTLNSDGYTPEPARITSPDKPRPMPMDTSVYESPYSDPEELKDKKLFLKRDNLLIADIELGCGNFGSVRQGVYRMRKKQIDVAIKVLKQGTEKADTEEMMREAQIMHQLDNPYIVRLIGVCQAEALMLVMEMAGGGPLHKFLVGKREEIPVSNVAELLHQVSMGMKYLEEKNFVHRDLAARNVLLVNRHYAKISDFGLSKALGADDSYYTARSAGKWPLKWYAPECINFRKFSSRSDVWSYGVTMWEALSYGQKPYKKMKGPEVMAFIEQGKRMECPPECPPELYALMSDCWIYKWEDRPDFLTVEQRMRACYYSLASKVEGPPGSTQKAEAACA

O=c1ccc(-c2cnc(OCC(F)(F)F)nc2)nn1Cc1cncc(F)c1 [EDG-5506]
IC50 [1]: > 100 µM
IC50 (mouse TA myofibrils): 400 nM
Maximum Inhibition (%) (Human Bicep myofibrils; human bicep myofibrils): 89%
IC50 (Human Bicep myofibrils; human bicep, 50% Type I, 50% IIa, IIx): 1200 nM
Maximum Inhibition (%) (Human Soleus myofibrils; human soleus myofibrils): 79%
IC50 (Human Soleus myofibrils; human soleus, 66% Type I, 33% IIa, IIx, at pCa 50): 1100 nM
effect on force, slow skeletal fibers [2]: no effect
plasma CK activity after in situ injury (mdx mice [3]; 1 hour after in situ injury): lowered plasma CK activity
postexercise plasma CK (mdx mice [3]; 1 hour after rotarod or grip strength tests): significantly lower
rotarod endurance (WT or mdx mice): no effect
wheel running (WT and mdx mice): no effect
Evans blue dye-positive fibers (mdx mice [4]): reduced blue fibers close to the level seen in WT mice
binding, % of control [5]: 94 % of control
binding, % of control (BMPR2): 99 % of control
binding, % of control (CSF1R): 100 % of control
binding, % of control (EGFR): 100 % of control
binding, % of control (FAK): 100 % of control
binding, % of control (IGF1R): 94 % of control
binding, % of control (MEK2): 72 % of control
binding, % of control (PIM2): 100 % of control
binding, % of control (RET): 52 % of control
binding, % of control [6]: 90 % of control
binding, % of control (YANK3): 88 % of control
binding, % of control (ZAP70): 85 % of control
